Laboratory results reported in patent publication US8552176B2 (priority 2010, dated 2013).

Key:
[1] = tested on: ten-member panel of human carcinomas; experiment: cells; format: cell-based
A549/ATCC = experiment: NCI 60 Human Tumor Cell Line Anticancer Screen; format: cell-based; details: Non-small cell lung
HT29 [2] = experiment: cells; format: cell-based, human
COLO 205 = experiment: NCI 60 Human Tumor Cell Line Anticancer Screen; format: cell-based; details: COLO 205, Colon
OVCAR-3 = experiment: NCI 60 Human Tumor Cell Line Anticancer Screen; format: cell-based; details: OVCAR-3, Ovary
SKOV3 [3] = experiment: NCI 60 Human Tumor Cell Line Anticancer Screen; format: cell-based; details: SKOV3, Ovary
NCI-H522 = experiment: NCI 60 Human Tumor Cell Line Anticancer Screen; format: cell-based; details: NCI-H522, Non-small cell lung
SKOV3 [4] = experiment: cells; format: cell-based, human; details: read-out: GI50 SKOV3 ovary
NCI-H226 = experiment: NCI 60 Human Tumor Cell Line Anticancer Screen; format: cell-based; details: NCI-H226, Non-small cell lung
UO-31 = experiment: NCI 60 Human Tumor Cell Line Anticancer Screen; format: cell-based; details: UO-31, Renal
PC-3 = experiment: NCI 60 Human Tumor Cell Line Anticancer Screen; format: cell-based; details: PC-3, Prostate
H1299 = experiment: cells; format: cell-based, human
HT29 [5] = experiment: NCI 60 Human Tumor Cell Line Anticancer Screen; format: cell-based; details: HT29, Colon
SW-620 = experiment: NCI 60 Human Tumor Cell Line Anticancer Screen; format: cell-based; details: SW-620, Colon
HCT-15 [6] = experiment: cells; format: cell-based, human
SK-MEL-2 = experiment: NCI 60 Human Tumor Cell Line Anticancer Screen; format: cell-based; details: SK-MEL-2, Melanoma
BT-549 = experiment: NCI 60 Human Tumor Cell Line Anticancer Screen; format: cell-based; details: BT-549, Breast
SK-MEL-5 = experiment: NCI 60 Human Tumor Cell Line Anticancer Screen; format: cell-based; details: SK-MEL-5, Melanoma
SF-268 = experiment: cells; format: cell-based, human; details: read-out: GI50 SF-268 CNS
Hep3b = experiment: cells; format: cell-based, human; details: read-out: GI50 Hep3b liver
NCI-H23 = experiment: NCI 60 Human Tumor Cell Line Anticancer Screen; format: cell-based; details: NCI-H23, Non-small cell lung
U251 = experiment: NCI 60 Human Tumor Cell Line Anticancer Screen; format: cell-based; details: U251, CNS
SN12C = experiment: NCI 60 Human Tumor Cell Line Anticancer Screen; format: cell-based; details: Renal
SF-295 = experiment: NCI 60 Human Tumor Cell Line Anticancer Screen; format: cell-based; details: SF-295, CNS
SNB-75 = experiment: NCI 60 Human Tumor Cell Line Anticancer Screen; format: cell-based; details: SNB-75, CNS
DU-145 = experiment: NCI 60 Human Tumor Cell Line Anticancer Screen; format: cell-based; details: DU-145, Prostate
HOP-92 = experiment: NCI 60 Human Tumor Cell Line Anticancer Screen; format: cell-based; details: HOP-92, Non-small cell lung
RPMI-8226 = experiment: NCI 60 Human Tumor Cell Line Anticancer Screen; format: cell-based; details: RPMI-8226, Leukemia
SK-MEL-28 = experiment: NCI 60 Human Tumor Cell Line Anticancer Screen; format: cell-based; details: SK-MEL-28, Melanoma
ACHN = experiment: NCI 60 Human Tumor Cell Line Anticancer Screen; format: cell-based; details: Renal
HCT-116 = experiment: NCI 60 Human Tumor Cell Line Anticancer Screen; format: cell-based; details: HCT-116, Colon
MALME-3M = experiment: NCI 60 Human Tumor Cell Line Anticancer Screen; format: cell-based; details: Melanoma
NCI-H460 [7] = experiment: cells; format: cell-based, human; details: read-out: GI50 NCI-H460 lung
786-0 = experiment: NCI 60 Human Tumor Cell Line Anticancer Screen; format: cell-based; details: 786-0, Renal
NCI-H460 [8] = experiment: NCI 60 Human Tumor Cell Line Anticancer Screen; format: cell-based; details: NCI-H460, Non-small cell lung
HCT-15 [9] = experiment: NCI 60 Human Tumor Cell Line Anticancer Screen; format: cell-based; details: HCT-15, Colon
A549 = experiment: cells; format: cell-based, human; details: read-out: GI50 A549 lung (+p53)
MOLT-4 = experiment: NCI 60 Human Tumor Cell Line Anticancer Screen; format: cell-based; details: MOLT-4, Leukemia
HCC-2998 = experiment: NCI 60 Human Tumor Cell Line Anticancer Screen; format: cell-based; details: HCC-2998, Colon

CON(CCCCc1ccc(N(CCCl)CCCl)cc1)C1OCC(O)C1O (centres unmarked) [Compound 60]
improvement in average growth inhibition across the cell panel [1]: 8 fold | increases in potency compared to 1 [1]: up to 15 fold | GI50 (A549/ATCC): 12.2 µM | Inhibition at 10 μM (A549/ATCC; 10 μM): 69.72% | improved activity over the parent drug (HT29 [2]): 12 fold | GI50 (HT29 [2]; read-out: GI50 HT29 colorectal): 0.41 ± 0.06 µM | GI50 (COLO 205): 12.7 µM | Inhibition at 10 μM (COLO 205; 10 μM): 93.34% | GI50 (OVCAR-3): 15.3 µM | Inhibition at 10 μM (OVCAR-3; 10 μM): 85.34% | GI50 (SKOV3 [3]): 17.9 µM | Inhibition at 10 μM (SKOV3 [3]; 10 μM): 72.76% | GI50 (NCI-H522): 10 µM | Inhibition at 10 μM (NCI-H522; 10 μM): 52.38% | GI50 (SKOV3 [4]): 1.5 ± 0.1 µM | GI50 (NCI-H226): 0.925 µM | Inhibition at 10 μM (NCI-H226; 10 μM): 84.25% | GI50 (UO-31): 0.856 µM | Inhibition at 10 μM (UO-31; 10 μM): 54.43% | GI50 (PC-3): 11.7 µM | Inhibition at 10 μM (PC-3; 10 μM): 72.52% | improved activity over the parent drug (H1299): 13 fold | GI50 (H1299; read-out: GI50 H1299 lung (−p53)): 0.37 ± 0.04 µM | GI50 (HT29 [5]): 26.6 µM | Inhibition at 10 μM (HT29 [5]; 10 μM): 70.71% | GI50 (SW-620): 12.4 µM | Inhibition at 10 μM (SW-620; 10 μM): 68.08% | improved activity over the parent drug (HCT-15 [6]): 15 fold | GI50 (HCT-15 [6]; read-out: GI50 HCT-15 colorectal): 0.53 ± 0.05 µM | GI50 (SK-MEL-2): 20.2 µM | Inhibition at 10 μM (SK-MEL-2; 10 μM): 100.16% | GI50 (BT-549): 13.4 µM | Inhibition at 10 μM (BT-549; 10 μM): 38.53% | GI50 (SK-MEL-5): 17.7 µM | Inhibition at 10 μM (SK-MEL-5; 10 μM): 79.00% | GI50 (SF-268): 1.5 ± 0.1 µM | GI50 (Hep3b): 0.67 ± 0.06 µM | GI50 (NCI-H23): 7.15 µM | Inhibition at 10 μM (NCI-H23; 10 μM): 54.44% | GI50 (U251): 13.1 µM | Inhibition at 10 μM (U251; 10 μM): 59.94% | GI50 (SN12C): 7.06 µM | Inhibition at 10 μM (SN12C; 10 μM): 54.23% | GI50 (SF-295): 6.47 µM | Inhibition at 10 μM (SF-295; 10 μM): 56.59% | GI50 (SNB-75): 19.5 µM | Inhibition at 10 μM (SNB-75; 10 μM): 66.74% | GI50 (DU-145): 4.84 µM | Inhibition at 10 μM (DU-145; 10 μM): 56.78% | GI50 (HOP-92): 4.03 µM | Inhibition at 10 μM (HOP-92; 10 μM): 58.81% | Inhibition at 10 μM (RPMI-8226): 15.94% | GI50 (SK-MEL-28): 36.5 µM | Inhibition at 10 μM (SK-MEL-28; 10 μM): 116.87% | GI50 (ACHN): 4.34 µM | Inhibition at 10 μM (ACHN; 10 μM): 14.27% | GI50 (HCT-116): 14.5 µM | Inhibition at 10 μM (HCT-116; 10 μM): 69.37% | GI50 (MALME-3M): 20.2 µM | Inhibition at 10 μM (MALME-3M; 10 μM): 69.73% | GI50 (NCI-H460 [7]): 1.7 ± 0.4 µM | GI50 (786-0): 6.16 µM | Inhibition at 10 μM (786-0; 10 μM): 67.90% | GI50 (NCI-H460 [8]): 3.76 µM | Inhibition at 10 μM (NCI-H460 [8]; 10 μM): 35.80% | GI50 (HCT-15 [9]): 19.7 µM | Inhibition at 10 μM (HCT-15 [9]; 10 μM): 77.10% | GI50 (A549): 1.1 ± 0.1 µM | GI50 (MOLT-4): 1.22 µM | Inhibition at 10 μM (MOLT-4; 10 μM): 64.41% | Inhibition at 10 μM (HCC-2998): 73.29%
